According to patent US7414107B2, “Pharmacologically active peptide conjugates having a reduced tendency towards enzymatic hydrolysis” (priority 1998, dated 2008):
Marks after values point to notes of the source that are not given here. Where a SMILES comes first, the peptide text is derived from it. Bridges are numbered along the chain shown (N, C = ends). Where no end group is shown, it is not given here. [ ]: non-standard residue; d: D form. Orn = NCCC[C@H](N)C(=O)O

Experiments:
leucine aminopeptidase = molecular target: T1, leucine aminopeptidase (Sus scrofa, UniProt P28839); test: Hydrolysis kinetics in leucine aminopeptidase solution; format: in vitro ADME, porcine; conditions: 50 mM phosphate buffer pH 7.4, 37° C., leucine aminopeptidase 25 U/ml; for half-life: pig
T1 construct: purchased Sigma, UK type III-CP (catalogue number not given); host or cells: porcine kidney
T1 sequence (P28839 1-519): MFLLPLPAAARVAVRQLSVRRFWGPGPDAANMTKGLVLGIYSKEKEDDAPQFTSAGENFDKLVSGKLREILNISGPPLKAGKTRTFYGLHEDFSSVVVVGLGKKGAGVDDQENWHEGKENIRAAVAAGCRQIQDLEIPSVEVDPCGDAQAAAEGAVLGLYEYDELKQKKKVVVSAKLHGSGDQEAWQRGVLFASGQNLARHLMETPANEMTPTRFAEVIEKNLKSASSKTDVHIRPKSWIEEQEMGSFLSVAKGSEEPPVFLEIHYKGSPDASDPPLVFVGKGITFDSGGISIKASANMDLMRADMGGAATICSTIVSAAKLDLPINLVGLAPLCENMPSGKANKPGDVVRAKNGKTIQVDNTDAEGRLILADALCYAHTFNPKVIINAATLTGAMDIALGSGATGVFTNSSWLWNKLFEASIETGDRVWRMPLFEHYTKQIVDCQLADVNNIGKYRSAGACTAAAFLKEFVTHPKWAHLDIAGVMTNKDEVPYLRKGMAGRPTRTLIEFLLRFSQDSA
Method: (§1) Carboxypeptidase A (EC 3.4.17.1) type I from bovine pancreas, leucine aminopeptidase (EC 3.4.11.1) type III-CP from porcine kidney, α-chymotrypsin (EC […]) from bovine pancreas, and pepsin A (EC 3.4.23.1) from porcine stomach mucosa […] were obtained from Sigma, UK.
(§2) Gradient HPLC analysis of samples from in vitro kinetic measurements performed as described below was performed using a Hewlett Packard HP 1100 HPLC system consisting of a HP 1100 Binary Pump, a HPI 100 Autosampler, a HPI 100 Column Thermostat and a HP 1100 Variable Wavelength Detector. A Merck LiChroCART column (125×4 mm I.D.) and a LiChroCART precolumn (4×4 mm I.D.) packed with Lichrospher RP-18 (5 .μum particles) was used. The column was kept at 25° C. or 75° C. and the column effluent was measured by UV detection at 215 run. Separation of the peptide conjugates or the native peptides from degradation products and constituents of the reaction solutions was accomplished using gradient elution of the column with mixtures of mobile phase A (0.1 vol % TFA in water) and mobile phase B (0.085 vol % TFA in acetonitrile) at a flow rate of 1 ml/min.
(§3) The degradation of the peptide conjugate and the corresponding native peptide were studied at 37° C. in a 50 mM phosphate buffer solution at pH 7.4 containing leucine arninopeptidase (25 U/ml) or carboxypeptidase A (1 or 25 U/ml). Experiments were initiated by addition of an aliquot (100 μl) of a stock solution (1 mg/ml) of the peptide conjugate or the native peptide to 900 μl preheated enzyme solution giving a final concentration of ˜0.1 mg/ml (10^−5-10^−4M) of the peptide conjugate or the native peptide. The peptide/enzyme solution was kept at 37° C. using a SHT200D block heater from Stuart Scientific. At appropriate time intervals, samples of 100 μl were withdrawn from the peptide/enzyme solution, mixed thoroughly with 20 μl 25% TFA in acetonitrile in order to stop the enzymatic degradation process and analysed by HPLC as described above. Half-lives (t1/2) for the peptide conjugate and the corresponding native peptide in the enzyme solutions were calculated from plots of the natural logarithm to the concentration of the residual peptide (HPLC peak heights) against time using the formula t/2=1/kobs×ln(2), where kobs is the apparent first-order rate constant for the observed degradation.

[1] = Hematological responses after p.o. EMP-1 / EMP-1-K6 in mice; format: in vivo; conditions: male mice, 956 nmol p.o., 4 days after administration
Method: To examine the biological efficacy of peroral (p.o.) treatment with EMP-1 (SEQ ID NO: 117) and EMP-1-K6 (SEQ ID NO: 93), the hematological responses of an equimolar p.o. dose (956 nmol) of EMP-1 (2 mg) and EMP-1-K6 (SEQ ID NO: 93) (2.56 mg) were examined in male mice (n=8/group). To examine the time course of the hematological responses, a 10 μl venous blood sample was collected from the retroorbital plexus on days 0, 2, and 4. Body weight (BW) and the plasma concentration of hemoglobin (P-Hgb), the hematocrit value (Hct), the red blood cell count (RBC), and the mean cell hemoglobin concentration (MCHC) were determined before (Day 0), and 2 and 4 days after administration of EMP-1 (SEQ ID NO: 117) or EMP-1- K6 (SEQ ID NO: 93).

carboxypeptidase A = molecular target: T2, carboxypeptidase A (Bos taurus, UniProt P00730); test: Hydrolysis kinetics in carboxypeptidase A solution; format: in vitro ADME, bovine; conditions: 50 mM phosphate buffer pH 7.4, 37° C., carboxypeptidase A 1 U/ml
T2 construct: purchased Sigma, UK type I (catalogue number not given); host or cells: bovine pancreas
T2 sequence (P00730 111-419): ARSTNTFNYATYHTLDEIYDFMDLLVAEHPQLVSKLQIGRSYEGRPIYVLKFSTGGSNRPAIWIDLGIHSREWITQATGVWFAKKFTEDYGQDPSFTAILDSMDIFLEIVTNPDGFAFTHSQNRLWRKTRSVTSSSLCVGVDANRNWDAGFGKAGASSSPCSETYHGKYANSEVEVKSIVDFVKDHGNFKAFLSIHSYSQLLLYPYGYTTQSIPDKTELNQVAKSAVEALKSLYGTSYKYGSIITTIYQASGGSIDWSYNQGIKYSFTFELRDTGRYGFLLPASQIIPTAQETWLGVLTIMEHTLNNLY
Method: as §1, §2, §3

vas deferens = conditions: read-out: EC50 value; half maximal inhibition of electrically-induced contraction, mouse vas deferens
Method: (§4) In short: vasa deferentia were isolated from male mice weighing 20-30 g (Mellegaard breeding, DK) and suspended through two electrodes in 10 ml baths at resting tension of 1 g. […] The tissues were stimulated electrically (70 V, 1 ms duration; 0.1 Hz) and contractions were recorded isometrically on a chart recorder. After equilibration of the tissue for at least 20 min, drugs were added in the bath and the maximum effects were measured.
Prior to addition of the plasma sample, a standard dose-response curve was generated in each preparation in order to express the inhibitory activity as concentration of each test substance. Thus, the calculated concentration is a reflection of inhibitory activity in the vas deferens bioassay preparation.
Where initial=initial […] contraction force prior to addition of test substance; conc=concentration of test substance; EC50=concentration of test substance that […] produced half maximal inhibition of electrically-induced contraction; background=contraction force during maximal relaxation.

[2] = Bioavailability in mice: functional activity in serum after p.o. or i.v. dosing (vas deferens bioassay); conditions: 30 min
Method: Blood samples were centrifuged immediately (3000 g, 4° C.) and serum was isolated and used for activity determination.
as §4

osteoblast = test: Osteoblast retraction assay; format: cell-based, mice; conditions: 10 nM, 1 h, mouse calvaria osteoblasts
Method: Retraction assays were performed with osteoblast prepared from calvaria of 1-day old mice according to published protocols (Miller et al., 1976, Science 192:1340-1343). In brief, osteoblasts were seeded in serum-free minimal essential medium-α (αMEM) at a density of 3000 cells per cm^2 into 96-well tissue culture plates coated with 50 μg/ml of type I collagen in phosphate-buffered saline containing 0.1% bovine serum albumin (PBS). One day after plating, PTH compounds were added to a final concentration of 10 nM and incubation was carried out for 1 h. Cells were then fixed and stained with toluidine blue, and the number of retracted cells was counted by visual inspection.

CC(C)C[C@@H]1NC(=O)[C@@H]2CCCN2C(=O)CNC(=O)[C@H](Cc2ccccc2)NC(=O)[C@H](Cc2c[nH]cn2)NC(=O)[C@@H](NC(=O)[C@H](CO)NC(=O)[C@H](Cc2ccc(O)cc2)NC(=O)[C@@H](NC(=O)CNC(=O)CN)[C@@H](C)O)CSSC[C@@H](C(=O)N[C@@H](CCCCN)C(=O)N2CCC[C@H]2C(=O)N[C@@H](CCC(N)=O)C(=O)NCC(=O)NCC(=O)N[C@@H](CCCCN)C(=O)N[C@@H](CCCCN)C(=O)N[C@@H](CCCCN)C(=O)N[C@@H](CCCCN)C(=O)N[C@@H](CCCCN)C(=O)N[C@@H](CCCCN)C(=O)O)NC(=O)[C@H](C(C)C)NC(=O)[C@H](Cc2c[nH]c3ccccc23)NC(=O)[C@H]([C@@H](C)O)NC1=O [EMP-1-(Lys)6-OH, H-Gly-Gly-Thr-Tyr-Ser-Cys-His-Phe-Gly-Pro-Leu-Thr-Trp -Val-Cys-Lys-Pro-Gln-Gly-Gly-LM-OH] (H-GGTYSCHFGPLTWVCKPQGGKKKKKK-OH; disulfide 6-15)
half-life (leucine aminopeptidase): > 100 h | Change in BW [1]: 3.4 ± 0.3 g | Change in Hematocrit [1]: 4.5 ± 0.9 % | Change in MCHC [1]: 0.2 ± 1.5 mM | Change in P-hgb [1]: +2.4 ± 0.3 mM | Change in RBC [1]: 1.0 ± 0.1* 10^12 cells/1 | Relative change in BW [1]: (15 ± 2%) | Relative change in Hematocrit [1]: (12.3 ± 2.3%*) | Relative change in MCHC [1]: (0 ± 2%) | Relative change in P-hgb [1]: (+15 ± 2%*) | Relative change in RBC [1]: (17 ± 2%*) | half-life (carboxypeptidase A): > 20 h

YGGFLKKKKKKKKKK [Leu-Enkephalin-(Lys)10-OH, H-Tyr-Gly-Gly-Phe-Leu-Lys10-OH]
half-life (leucine aminopeptidase): > 100 h | EC50 (vas deferens): 2500 nM | half-life (carboxypeptidase A): 38.5 h | pseudo first-order rate constant for the degradation (carboxypeptidase A): 0.0003 min⁻¹

H-YGGFLKKEEEK-OH [Leu-Enkephalin-(Lys2-Glu3-Lys)-OH, H-Tyr-Gly-Gly-Phe-Leu-Lys-Lys-Glu-Glu-Glu-Lys-OH]
EC50 (vas deferens): 680 nM

CC(C)C[C@H](NC(=O)[C@H](Cc1ccccc1)NC(=O)CNC(=O)CNC(=O)[C@@H](N)Cc1ccc(O)cc1)C(=O)O [Leu-Enkephalin-OH, H-Tyr-Gly-Gly-Phe-Leu-OH, reference compound]
pseudo first-order rate constant for the degradation (leucine aminopeptidase): 0.68 min⁻¹ | half-life (leucine aminopeptidase): 0.0167 h | EC50 (vas deferens): 65 nM | Functional activity in serum ([2]; 50 mg/kg i.v.): no activity was detected | Functional activity in serum ([2]; 50 mg/kg p.o.): no activity was detected | pseudo first-order rate constant for the degradation (carboxypeptidase A): 0.98 min⁻¹ | half-life (carboxypeptidase A; cattle, carboxypeptidase A solution (1 U/ml) in phosphate buffer): 0.0117 h

CC(C)C[C@@H]1NC(=O)[C@@H]2CCCN2C(=O)CNC(=O)[C@H](Cc2ccccc2)NC(=O)[C@H](Cc2c[nH]cn2)NC(=O)[C@@H](NC(=O)[C@H](CO)NC(=O)[C@H](Cc2ccc(O)cc2)NC(=O)[C@@H](NC(=O)CNC(=O)CN)[C@@H](C)O)CSSC[C@@H](C(=O)N[C@@H](CCCCN)C(=O)N2CCC[C@H]2C(=O)N[C@@H](CCC(N)=O)C(=O)NCC(=O)NCC(=O)O)NC(=O)[C@H](C(C)C)NC(=O)[C@H](Cc2c[nH]c3ccccc23)NC(=O)[C@H]([C@@H](C)O)NC1=O [EMP-1-OH, H-GIy-Gly-Thr-Tyr-Ser-Cys-His-Phe-Gly-Pro-Leu-Thr-Trp -Val-Cys-Lys-Pro-Gln-Gly-GIy-OH, reference compound] (H-GGTYSCHFGPLTWVCKPQGG-OH; disulfide 6-15)
pseudo first-order rate constant for the degradation (leucine aminopeptidase): 0.0015 min⁻¹ | half-life (leucine aminopeptidase): 7.7 h | Change in BW [1]: 3.4 ± 0.2 g | Change in Hematocrit [1]: 0.3 ± 0.8% | Change in MCHC [1]: 2.9 ± 1.5 mM | Change in P-hgb [1]: +1.5 ± 0.5 mM | Change in RBC [1]: 0.6 ± 0.2 10^12 cells/1 | Relative change in BW [1]: (16 ± 1%) | Relative change in Hematocrit [1]: (0.8 ± 1.8%) | Relative change in MCHC [1]: (4 ± 2%) | Relative change in P-hgb [1]: (+8 ± 1%) | Relative change in RBC [1]: (9 ± 3%) | half-life (carboxypeptidase A): > 50 h

CC(C)C[C@H](NC(=O)[C@H](Cc1ccccc1)NC(=O)CNC(=O)CNC(=O)[C@@H](N)Cc1ccc(O)cc1)C(=O)N[C@@H](CCCN)C(=O)N[C@@H](CCCN)C(=O)N[C@@H](CCCN)C(=O)N[C@@H](CCCN)C(=O)N[C@@H](CCCN)C(=O)N[C@@H](CCCN)C(=O)O [Leu-Enkephalin-(Orn)6-OH, H-Tyr-Gly-Gly-Phe-Leu-(Orn)6-OH] (H-YGGFL[Orn][Orn][Orn][Orn][Orn][Orn]-OH)
pseudo first-order rate constant for the degradation (leucine aminopeptidase): 0.0064 min⁻¹ | half-life (leucine aminopeptidase): 1.8 h | EC50 (vas deferens): > 20000 nM | half-life (carboxypeptidase A): > 100 h

YGGFLKEKEKE [Leu-Enkephalin-(Lys-Glu)3-OH]
EC50 (vas deferens): 350 nM

B1: Parathyroid Hormone: native, human parathyroid hormone (protein, UniProt P01270 32-115, looked up)
Parathyroid hormone: SVSEIQLMHNLGKHLNSMERVEWLRKKLQDVHNFVALGAPLAPRDAGSQRPRKKEDNVLVESHEKSLGEADKADVNVLTKAKSQ
modifications: Parathyroid hormone
Retraction assay % Retracted cells (osteoblast): 63.7% | Retraction assay % Retracted cells (osteoblast; listed as PTH): ~64%
